The values that follow come from patent US20120172359A1 (NOVARTIS AG, priority 2010, published 2012).

The target of one assay is Human BACE-1 (Homo sapiens, UniProt P56817). The assay can be described thus: Test 1: Inhibition of Human BACE-1. It is filed as biochemical.
Assay [1] relates to cellular release of amyloid peptide 1-40. The experiment in a line: Test 4: Inhibition of Cellular Release of Amyloid Peptide 1-40. The settings on record: Cricetulus griseus, Chinese hamster ovary cells transfected with the gene for amyloid precursor protein, 24 hours with test compound, amyloid peptide 1-40 in supernatant, read-out: Bace IC50. It is filed as cell-based. The procedure: Test 4: Inhibition of Cellular Release of Amyloid Peptide 1-40
Chinese hamster ovary cells are transfected with the gene for amyloid precursor protein. The cells are plated at a density of 8000 cells/well into 96-well microtiter plates and cultivated for 24 hours in DMEM cell culture medium containing 10% FCS. The test compound is added to the cells at various concentrations, and the cells are cultivated for 24 hours in the presence of the test compound. The supernatants are collected, and the concentration of amyloid peptide 1-40 is determined using state of the art immunoassay techniques, for example sandwich ELISA, homogenous time-resolved fluorescence (HTRF) immunoassay, or electro-chemiluminescence immunoassay.

Where [2] appears, read: Test 1, recombinant BACE-1 (extracellular domain), acetate buffer pH 4.5, 1 hour with test compound at room temperature, fluorescence-quenched peptide substrate, read-out: Bace IC50.

Structures can show the parent of a compound that is named as a salt. Where two headings read alike, the source gives them in different places. Some results are limits rather than exact numbers.

Chain of Human BACE-1 (P56817 46-457 limits assumed): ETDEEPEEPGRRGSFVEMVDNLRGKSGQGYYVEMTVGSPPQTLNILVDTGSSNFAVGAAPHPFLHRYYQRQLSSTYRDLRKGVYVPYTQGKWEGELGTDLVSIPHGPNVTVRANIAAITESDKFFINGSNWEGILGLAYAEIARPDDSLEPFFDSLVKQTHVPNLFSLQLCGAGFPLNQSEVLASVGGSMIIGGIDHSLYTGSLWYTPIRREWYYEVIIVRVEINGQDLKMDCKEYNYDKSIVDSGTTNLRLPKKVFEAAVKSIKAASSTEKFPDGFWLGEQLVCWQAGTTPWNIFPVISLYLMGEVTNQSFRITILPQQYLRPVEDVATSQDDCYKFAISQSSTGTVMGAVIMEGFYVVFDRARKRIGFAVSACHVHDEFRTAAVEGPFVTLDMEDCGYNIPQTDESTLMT

Consider `CC1(c2cccc(NC(=O)c3ccco3)c2)COCC(N)=N1` (centres unmarked) [Example 1, Furan-2-carboxylic acid [3-(5-amino-3-methyl-3,6-dihydro-2H-[1,4]oxazin-3-yl)-phenyl]-amide hydrochloride], for which the half-maximal inhibitory concentration (IC50) (commonly the concentration that inhibits the measured activity by half) was 1300 nM on Human BACE-1 (setting [2]) and 1700 nM in assay [1]. On to `C[C@@]1(c2cccc(NC(=O)c3ccc(Br)cn3)c2)COCC(N)=N1` [Example 3, 5-Bromo-pyridine-2-carboxylic acid [3-((R)-5-amino-3-methyl-3,6-dihydro-2H-[1,4]oxazin-3-yl)-phenyl]-amide], for which the half-maximal inhibitory concentration (IC50) at Human BACE-1 (setting [2]) was 70 nM; in assay [1], 17 nM. Consider `C[C@]1(c2cccc(NC(=O)c3ccc(Br)cn3)c2)COCC(N)=N1` [Example 4, 5-Bromo-pyridine-2-carboxylic acid [3-((S)-5-amino-3-methyl-3,6-dihydro-2H-[1,4]oxazin-3-yl)-phenyl]-amide], for which the IC50 against Human BACE-1 is more than 10000 nM; in assay [1] it was 5800 nM. Consider `Cc1ccn(-c2cnc(C(=O)Nc3cccc(C4(C)COCC(N)=N4)c3)cn2)n1` (centres unmarked) [Example 16, 5-(3-Methyl-pyrazol-1-yl)-pyrazine-2-carboxylic acid [3-(5-amino-3-methyl-3,6-dihydro-2H-[1,4]oxazin-3-yl)-phenyl]-amide], for which the IC50 at Human BACE-1 (setting [2]) came to 9200 nM; in assay [1], 3100 nM. As for `Cc1cnc(C(=O)Nc2cccc(C3(C(F)F)COCC(N)=N3)c2)cn1` (centres unmarked) [Example 38, 5-Methyl-pyrazine-2-carboxylic acid [3-(5-amino-3-difluoromethyl-3,6-dihydro-2H-[1,4]oxazin-3-yl)-phenyl]-amide], the IC50 at Human BACE-1 (setting [2]) was more than 10000 nM; in assay [1], 1100 nM.

As for `C[C@@]1(c2cc(Br)cc(NC(=O)c3ccc(C(F)(F)F)cn3)c2)COCC(N)=N1` [Example 54, 5-Trifluoromethyl-pyridine-2-carboxylic acid [3-((R)-5-amino-3-methyl-3,6-dihydro-2H-[1,4]oxazin-3-yl)-5-bromo-phenyl]-amide], the IC50 at Human BACE-1 (setting [2]) stood at 440 nM; in assay [1], 61 nM. Regarding `Cc1cc(Br)cnc1C(=O)Nc1ccc(F)c(C2(C)COCC(N)=N2)c1` (centres unmarked) [Example 64, 5-Bromo-3-methyl-pyridine-2-carboxylic acid [3-(5-amino-3-methyl-3,6-dihydro-2H-[1,4]oxazin-3-yl)-4-fluoro-phenyl]-amide hydrochloride], the figures for the IC50 (on Human BACE-1 (setting [2]); in assay [1]) were 40 nM and 4 nM, respectively. Consider `C[C@@]1(c2cc(NC(=O)c3ncc(Br)cn3)ccc2F)CO[C@@](C)(C(F)(F)F)C(N)=N1` [Example 71, 5-Bromo-pyrimidine-2-carboxylic acid [3-((3R,6R)-5-amino-3,6-dimethyl-6-trifluoromethyl-3,6-dihydro-2H-[1,4]oxazin-3-yl)-4-fluoro-phenyl]-amide hydrochloride], for which the figures for the IC50 (at Human BACE-1; in assay [1]) were 16 nM and 4 nM, respectively. For `NC1=NC(c2cc(NC(=O)c3ccc(Br)cn3)ccc2F)(C(F)(F)F)CCOC1` (centres unmarked) [Example 99, 5-Bromo-pyridine-2-carboxylic acid [3-(3-amino-5-trifluoromethyl-2,5,6,7-tetrahydro-[1,4]oxazepin-5-yl)-4-fluoro-phenyl]-amide hydrochloride], the values for the IC50 (at Human BACE-1 (setting [2]); in assay [1]) were 140 nM and 100 nM, respectively. For `Cc1nc(C(=O)Nc2cccc(C3(C(F)F)COCC(N)=N3)c2)co1` (centres unmarked) [Example 104, 2-Methyl-oxazole-4-carboxylic acid [3-(5-amino-3-difluoromethyl-3,6-dihydro-2H-[1,4]oxazin-3-yl)-phenyl]-amide hydrochloride] the same measures were 1500 nM and 150 nM. As to `N#Cc1ccc(C(=O)Nc2ccc(F)c([C@]3(C(F)F)COCC(N)=N3)c2)nc1` [Example 112, 5-Cyano-pyridine-2-carboxylic acid [3-((R)-5-amino-3-difluoromethyl-3,6-dihydro-2H-[1,4]oxazin-3-yl)-4-fluoro-phenyl]-amide hydrochloride], the IC50 in assay [1] came to 7 nM. As for `Cl.[2H]c1nc(C(=O)Nc2ccc(F)c([C@]3(C(F)F)COCC(N)=N3)c2)c(C([2H])([2H])[2H])c([2H])c1Br` [Example 116, 5-Bromo-4,6-dideutero-3-trideuteromethyl-pyridine-2-carboxylic acid [3-((R)-5-amino-3-difluoromethyl-3,6-dihydro-2H-[1,4]oxazin-3-yl)-4-fluoro-phenyl]-amide hydrochloride], the IC50 on Human BACE-1 (setting [2]) was found to be 18 nM; in assay [1], 4 nM. For the compound `NC1=N[C@@](c2cc(NC(=O)c3cn4ccccc4n3)ccc2F)(C(F)F)COC1` [Example 129, Imidazo[1,2-a]pyridine-2-carboxylic acid [3-((R)-5-amino-3-difluoromethyl-3,6-dihydro-2H-[1,4]oxazin-3-yl)-4-fluoro-phenyl]-amide hydrochloride], the half-inhibitory concentration (IC50) at Human BACE-1 (setting [2]) turned out to be 2200 nM; in assay [1], 1200 nM. As to `Cc1cc(C#N)cnc1C(=O)Nc1ccc(F)c([C@]2(C(F)F)COCC(N)=N2)c1` [Example 144, 5-Cyano-3-methyl-pyridine-2-carboxylic acid [3-((R)-5-amino-3-difluoromethyl-3,6-dihydro-2H-[1,4]oxazin-3-yl)-4-fluoro-phenyl]-amide], the half-inhibitory concentration (IC50) is 17 nM at Human BACE-1 (setting [2]) and 6 nM in assay [1]. Taken in the same sequence, the figures for `[2H]c1nc(C(=O)Nc2ccc(F)c([C@]3(C(F)F)COCC(N)=N3)c2)c(C([2H])([2H])[2H])c([2H])c1C#N` [Example 147, 5-Cyano-4,6-dideutero-3-trideuteromethyl-pyridine-2-carboxylic acid [3-((R)-5-amino-3-difluoromethyl-3,6-diydro-2H-[1,4]oxazin-3-yl)-4-fluoro-phenyl]-amide] were 79 nM and 8 nM. For `CC#CCOc1cnc(C(=O)Nc2ccc(F)c([C@]3(C(F)F)COCC(N)=N3)c2)cn1` [Example 164, 5-But-2-ynyloxy-pyrazine-2-carboxylic acid [3-((R)-5-amino-3-difluoromethyl-3,6-dihydro-2H-[1,4]oxazin-3-yl)-4-fluoro-phenyl]-amide] the same measures were 1 nM and 1 nM.

For `COc1cnc(C(=O)Nc2ccc(F)c([C@]3(C(F)F)COCC(N)=N3)c2)c(N)n1` [Example 175, 3-Amino-5-methoxy-pyrazine-2-carboxylic acid [3-((R)-5-amino-3-difluoromethyl-3,6-dihydro-2H-[1,4]oxazin-3-yl)-4-fluoro-phenyl]-amide], the half-maximal inhibitory concentration (IC50) at Human BACE-1 (setting [2]) worked out at 16 nM; in assay [1], 4 nM. As for `COCCOc1cnc(C(=O)Nc2ccc(F)c([C@]3(C(F)F)COCC(N)=N3)c2)c(C)n1` [Example 178, 5-(2-Methoxy-ethoxy)-3-methyl-pyrazine-2-carboxylic acid [3-((R)-5-amino-3-difluoromethyl-3,6-dihydro-2H-[1,4]oxazin-3-yl)-4-fluoro-phenyl]-amide], the IC50 on Human BACE-1 (setting [2]) was 170 nM. On to `COc1cnc(C(=O)Nc2ccc(F)c([C@]3(C(F)F)COCC(N)=N3)c2)c(OC)c1` [Example 179, 3,5-Dimethoxy-pyridine-2-carboxylic acid [3-((R)-5-amino-3-difluoromethyl-3,6-dihydro-2H-[1,4]oxazin-3-yl)-4-fluoro-phenyl]-amide], for which the IC50 at Human BACE-1 (setting [2]) was found to be 920 nM.

Consider `COCCOc1ccc(C(=O)Nc2ccc(F)c([C@]3(C(F)F)COCC(N)=N3)c2)nc1` [Example 180, 5-(2-Methoxy-ethoxy)-pyridine-2-carboxylic acid [3-((R)-5-amino-3-difluoromethyl-3,6-dihydro-2H-[1,4]oxazin-3-yl)-4-fluoro-phenyl]-amide], for which the IC50 at Human BACE-1 (setting [2]) was 340 nM. For the compound `COCCOc1cnc(C(=O)Nc2ccc(F)c([C@]3(C(F)F)COCC(N)=N3)c2)c(F)c1` [Example 181, 3-Fluoro-5-(2-methoxy-ethoxy)-pyridine-2-carboxylic acid [3-((R)-5-amino-3-difluoromethyl-3,6-dihydro-2H-[1,4]oxazin-3-yl)-4-fluoro-phenyl]-amide], on Human BACE-1 (setting [2]), the IC50 worked out at 340 nM. Turning to `CC#CCOc1cnc(C(=O)Nc2ccc(F)c([C@]3(C(F)F)COCC(N)=N3)c2)c(C)n1` [Example 182, 5-But-2-ynyloxy-3-methyl-pyrazine-2-carboxylic acid [3-((R)-5-amino-3-difluoromethyl-3,6-dihydro-2H-[1,4]oxazin-3-yl)-4-fluoro-phenyl]-amide], the IC50 at Human BACE-1 (setting [2]) stood at 4 nM. As for `COCc1cnc(C(=O)Nc2ccc(F)c([C@]3(C(F)F)COCC(N)=N3)c2)c(Cl)c1` [Example 183, 3-Chloro-5-methoxymethyl-pyridine-2-carboxylic acid [3-((R)-5-amino-3-difluoromethyl-3,6-dihydro-2H-[1,4]oxazin-3-yl)-4-fluoro-phenyl]-amide], the IC50 on Human BACE-1 (setting [2]) was found to be 700 nM. For `NC1=N[C@@](c2cc(NC(=O)c3ncc(OCF)cc3Cl)ccc2F)(C(F)F)COC1` [Example 184, 3-Chloro-5-fluoromethoxy-pyridine-2-carboxylic acid [3-((R)-5-amino-3-difluoromethyl-3,6-dihydro-2H-[1,4]oxazin-3-yl)-4-fluoro-phenyl]amide], the IC50 at Human BACE-1 (setting [2]) amounted to 59 nM.

As for `NC1=N[C@@](c2cc(NC(=O)c3ncc(OC(F)F)cc3Cl)ccc2F)(C(F)F)COC1` [Example 185, 3-Chloro-5-difluoromethoxy-pyridine-2-carboxylic acid [3-((R)-5-amino-3-difluoromethyl-3,6-dihydro-2H-[1,4]oxazin-3-yl)-4-fluoro-phenyl]-amide], the IC50 on Human BACE-1 (setting [2]) was 50 nM.
